Test results published in patent US20240400572A1, “COMPOUNDS AND METHODS FOR TREATING CANCERS THAT ARE MGMT DEFICIENT REGARDLESS OF MMR STATUS” (Yale University, priority 2021, published 2024).
Values joined by “and” are separate entries in the source; they are usually repeats but may differ in a detail not shown here. Identical values can stand only once. Like-named read-outs stand apart in the source and are kept apart here.

Experiment: Brain distribution study
Format: in vivo, male C57BL/6 mice
Details: PO 20 mg/kg, male C57BL/6 mice
Description: Compound KL50 dosing solution: 3.39% DMSO+96.61% (10% HP-β-CD in saline) at 2 mg/mL; • 1) Weigh 17.39 mg of compound KL50 into a clean tube. • 2) Add 0.295 mL DMSO into the tube containing the compound. • 3) Vortex the tube for 3 min and sonicate it for 4 min. • 4) Add 8.400 mL 10% HP-β-CD in saline into the tube and vortex the tube for 3 min. Compound I-1 dosing solution: 3.39% DMSO+96.61% (10% HP-β-CD in saline) at 2 mg/mL; • 1) Weigh 16.86 mg Compound I-1 into a clean tube. • 2) Add 0.286 mL DMSO into the tube containing the compound. • 3) Vortex the tube for 3 min and sonicate it for 4 min. • 4) Add 8.144 mL 10% HP-β-CD in saline into the tube and vortex the tube for 3 min.
The in-vivo pharmacokinetic and brain distribution study was conducted under the following parameters. Twenty seven C57BL/6 male mice were purchased from Shanghai JiHui Laboratory Animal Co. LTD. Each mouse weighted from 16 g to 17 g. The mice were fasted overnight and fed post 4 hr sampling. Compound KL50 and Compound I-I were administered via oral gavage (PO) at a dose of 20 mg/kg (10 mL/kg). After dosing, sampling was completed at 0.083, 0.167, 0.333, 0.5, 0.75, 1, 2, 4 and 8 hr post dose, with three mice sacrificed at each time point.
Terminal bleeding for plasma and brain was completed at each time point. Approximately 110 μL blood per time point was collected into a K2EDTA tube via the facial vein. The blood sample was put on wet ice and centrifuged to obtain plasma sample (2000 g, 5 min under 4° C.) within 15 minutes. Plasma samples were acidified with 6 μL of formic acid for every 54 μL of plasma. After blood collection, a mid-line incision was made in the animal's scalp and the skin was retracted. The skull overlying the brain was removed. Then, the whole brain was collected, rinsed with cold saline, dried on filtrate paper, and weighed; and then snap frozen by placing the brain into dry-ice. Plasma samples were stored at approximately −70° C. until analysis. Brain tissue was homogenized with 3 volumes (v/w) of PBS (1% FA) and then analyzed with LC-MS/MS. The concentration of study drug was corrected with a dilution factor of four as following: Brain concentration=brain homogenate conc.×4, assuming 1 g wet brain tissue equals to 1 mL

Question: What does the source list for NC(=O)c1ncn2c(=O)n(CCF)nnc12 [KL-50, 3-(2-fluoroethyl)-4-oxo-3H,4H-imidazo[4,3-d][1,2,3,5]tetrazine-8-carboxamide]?
Answer: Brain Concentration/Plasma Concentration, Individuals (0.083 hr, 20 mg/kg): 0.0770 and 0.0693; brain Concentration, Individuals (0.083 hr, 20 mg/kg): 1970 ng/g and 1940 ng/g; Brain Concentration/Plasma Concentration, Individuals (0.167 hr, 20 mg/kg): 0.123 and 0.156; brain Concentration, Individuals (0.167 hr, 20 mg/kg): 2810 ng/g and 2820 ng/g; Brain Concentration/Plasma Concentration, Individuals (0.333 hr, 20 mg/kg): 0.206 and 0.213; brain Concentration, Individuals (0.333 hr, 20 mg/kg): 2980 ng/g and 4450 ng/g; Brain Concentration/Plasma Concentration, Individuals (0.5 hr, 20 mg/kg): 0.260 and 0.250; brain Concentration, Individuals (0.5 hr, 20 mg/kg): 3230 ng/g and 3830 ng/g; Brain Concentration/Plasma Concentration, Individuals (0.75 hr, 20 mg/kg): 0.278 and 0.331; brain Concentration, Individuals (0.75 hr, 20 mg/kg): 3060 ng/g and 3380 ng/g; Brain Concentration/Plasma Concentration, Individuals (1 hr, 20 mg/kg): 0.345 and 0.266; brain Concentration, Individuals (1 hr, 20 mg/kg): 2530 ng/g and 3270 ng/g; Brain Concentration/Plasma Concentration, Individuals (2 hr, 20 mg/kg): 0.347 and 0.335; brain Concentration, Individuals (2 hr, 20 mg/kg): 953 ng/g and 1530 ng/g; Brain Concentration/Plasma Concentration, Individuals (4 hr, 20 mg/kg): 0.269 and 0.250; brain Concentration, Individuals (4 hr, 20 mg/kg): 184 ng/g and 427 ng/g and 199 ng/g; Brain Concentration/Plasma Concentration, Individuals (8 hr, 20 mg/kg): 0.175 and 0.244; brain Concentration, Individuals (8 hr, 20 mg/kg): 85.3 ng/g and 18.2 ng/g and 45.2 ng/g; AUCINF (brain): 7213 ng·h/g; AUClast (brain): 7128 ng·h/g; concentration at 0.083 hr (male, C57BL/6, mouse, brain, po, 20 mg/kg, 0.083 hr, N=3, read-out: brain Concentration, Mean): 1820 ng/g; concentration at 0.083 hr (male, C57BL/6, mouse, brain, po, 20 mg/kg, 0.083 hr, read-out: brain Concentration, Individuals): 1540 ng/g; concentration at 0.167 hr (male, C57BL/6, mouse, brain, po, 20 mg/kg, 0.167 hr, N=3, read-out: brain Concentration, Mean): 2940 ng/g; concentration at 0.167 hr (male, C57BL/6, mouse, brain, po, 20 mg/kg, 0.167 hr, read-out: brain Concentration, Individuals): 3180 ng/g; concentration at 0.333 hr (male, C57BL/6, mouse, brain, po, 20 mg/kg, 0.333 hr, N=3, read-out: brain Concentration, Mean): 3690 ng/g; concentration at 0.333 hr (male, C57BL/6, mouse, brain, po, 20 mg/kg, 0.333 hr, read-out: brain Concentration, Individuals): 3630 ng/g; concentration at 0.5 hr (male, C57BL/6, mouse, brain, po, 20 mg/kg, 0.5 hr, N=3, read-out: brain Concentration, Mean): 3600 ng/g; concentration at 0.5 hr (male, C57BL/6, mouse, brain, po, 20 mg/kg, 0.5 hr, read-out: brain Concentration, Individuals): 3730 ng/g; concentration at 0.75 hr (male, C57BL/6, mouse, brain, po, 20 mg/kg, 0.75 hr, N=3, read-out: brain Concentration, Mean): 3250 ng/g; concentration at 0.75 hr (male, C57BL/6, mouse, brain, po, 20 mg/kg, 0.75 hr, read-out: brain Concentration, Individuals): 3300 ng/g; concentration at 1 hr (male, C57BL/6, mouse, brain, po, 20 mg/kg, 1 hr, N=3, read-out: brain Concentration, Mean): 2910 ng/g; concentration at 1 hr (male, C57BL/6, mouse, brain, po, 20 mg/kg, 1 hr, read-out: brain Concentration, Individuals): 2920 ng/g; concentration at 2 hr (male, C57BL/6, mouse, brain, po, 20 mg/kg, 2 hr, N=3, read-out: brain Concentration, Mean): 1140 ng/g; concentration at 2 hr (male, C57BL/6, mouse, brain, po, 20 mg/kg, 2 hr, read-out: brain Concentration, Individuals): 934 ng/g; concentration at 4 hr (male, C57BL/6, mouse, brain, po, 20 mg/kg, 4 hr, N=3): 270 ng/g; concentration at 8 hr (male, C57BL/6, mouse, brain, po, 20 mg/kg, 8 hr, N=3): 49.6 ng/g; Kp (male, C57BL/6, mouse, brain/plasma, po, 20 mg/kg, AUCbrain/AUCplasma, heading: AUCbrain/AUCplasma): 25.1%; Kp at 0.083 hr (male, C57BL/6, mouse, brain/plasma, po, 20 mg/kg, 0.083 hr, N=3, read-out: Brain Concentration/Plasma Concentration, Mean): 0.0718; Kp at 0.083 hr (male, C57BL/6, mouse, brain/plasma, po, 20 mg/kg, 0.083 hr, read-out: Brain Concentration/Plasma Concentration, Individuals): 0.0691; Kp at 0.167 hr (male, C57BL/6, mouse, brain/plasma, po, 20 mg/kg, 0.167 hr, N=3, read-out: Brain Concentration/Plasma Concentration, Mean): 0.136; Kp at 0.167 hr (male, C57BL/6, mouse, brain/plasma, po, 20 mg/kg, 0.167 hr, read-out: Brain Concentration/Plasma Concentration, Individuals): 0.13; Kp at 0.333 hr (male, C57BL/6, mouse, brain/plasma, po, 20 mg/kg, 0.333 hr, N=3, read-out: Brain Concentration/Plasma Concentration, Mean): 0.203; Kp at 0.333 hr (male, C57BL/6, mouse, brain/plasma, po, 20 mg/kg, 0.333 hr, read-out: Brain Concentration/Plasma Concentration, Individuals): 0.191; Kp at 0.5 hr (male, C57BL/6, mouse, brain/plasma, po, 20 mg/kg, 0.5 hr, N=3, read-out: Brain Concentration/Plasma Concentration, Mean): 0.257; Kp at 0.5 hr (male, C57BL/6, mouse, brain/plasma, po, 20 mg/kg, 0.5 hr, read-out: Brain Concentration/Plasma Concentration, Individuals): 0.259; Kp at 0.75 hr (male, C57BL/6, mouse, brain/plasma, po, 20 mg/kg, 0.75 hr, N=3, read-out: Brain Concentration/Plasma Concentration, Mean): 0.318
